Several values for one entry are separate records, joined by “and”; a condition that tells them apart may be missing. Equal entries are not always repeated.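 In this assay, cells in 96-well plates receive the compound at five concentrations for 48 hours. Endpoints are linearly interpolated between the surrounding concentrations. GI50 is the concentration that inhibits growth by half. TGI marks complete inhibition of growth.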
Experiments:
Assay in all cases: NCI anticancer screen, dose series, 48 h
[1] = system: MDA-MB-468 breast
[2] = system: A549 NSCLC
[3] = system: HCT-15 colon
[4] = system: MDA-MB-435
[5] = system: SW-620 colon
[6] = system: OVCAR-4 ovarian
[7] = system: HT29 colon
[8] = system: U251 CNS
[9] = system: UO-31 renal
[10] = system: 786-0 renal
[11] = system: UACC-62 melanoma
[12] = system: NCI-H522 lung
[13] = system: COLO 205 colon
[14] = system: RXF 393 renal
[15] = system: OVCAR-3 ovarian
[16] = system: DU-145 prostate
[17] = system: HCC-2998 colon
[18] = system: TK-10 renal
[19] = system: ACHN renal
[20] = system: SF-539 CNS
[21] = system: NCI-H226 lung
[22] = system: K-562 leukemia
[23] = system: A498 renal
[24] = system: CAKI-1 renal
[25] = system: NCI-H23 lung
[26] = system: KM12 colon
[27] = system: SN12C renal
[28] = system: HS 578T breast
[29] = system: SNB-75 CNS
[30] = system: EKVX NSCLC
[31] = system: HOP-62 NSCLC
[32] = system: SK-MEL-5 melanoma
[33] = system: SF-268 CNS
[34] = system: MALME-3M melanoma
[35] = system: BT-549 breast
[36] = system: PC-3 prostate
[37] = system: SNB-19 CNS
[38] = system: LOX IMVI melanoma
[39] = system: OVCAR-5 ovarian
[40] = system: SK-MEL-28 melanoma
[41] = system: IGROV1 ovarian
[42] = system: HL-60(TB) leukemia
[43] = system: RPMI-8226 leukemia
[44] = system: SF-295 CNS
[45] = system: HCT-116 colon
[46] = system: OVCAR-8 ovarian
[47] = system: CCRF-CEM leukemia
[48] = system: UACC-257 melanoma
[49] = system: NCI-H460 lung
[50] = system: MDA-MB-231 breast
[51] = system: SK-MEL-2 melanoma
[52] = system: MCF7 breast
[53] = system: M14 melanoma
[54] = system: HOP-92 NSCLC
[55] = system: T-47D breast
[56] = system: SK-OV-3 ovarian
[57] = system: SR leukemia

## C[C@@H]1N=C(c2ccc(Br)cc2)Nc2nc3ccccn3c2C1=O
[1]
  GI50: 1.98 µM
  TGI: 5.12 µM

## CCN(CC)CCOc1ccc(C(=C(C)Cc2ccc(OC)cc2)c2ccc(OCCN(CC)CC)cc2)cc1
[1]
  GI50: 3.27 µM
  TGI: 6.65 µM

## C=CCN1C=CC(=O)[C@H](O[Si](C)(C)C(C)(C)C)[C@@H]1/C=C/c1ccccc1
[1]
  GI50: 8.27 µM
  TGI: 22.2 µM

## CCOc1ccc(Nc2nc(-c3ccc4c(c3)NC(=O)CO4)cs2)cc1
[1]
  GI50: 2.46 µM
  TGI: 8.04 µM

## Cn1nc(C(F)(F)F)cc1-c1cc(Cl)c(COc2ccc(Cl)cc2)c(-c2ccc(Cl)c(C(F)(F)F)c2)c1O
[2]
  GI50: 3.36 µM
  TGI: 15.5 µM
[3]
  GI50: 1.28 µM
  TGI: 7.14 µM
[4]
  GI50: 3.02 µM
  TGI: 10.3 µM
[5]
  GI50: 3.13 µM
  TGI: 12.1 µM
[6]
  GI50: 3.11 µM
  TGI: 13.5 µM
[7]
  GI50: 3.36 µM
  TGI: 14.6 µM
[8]
  GI50: 2.42 µM
  TGI: 14.3 µM
[9]
  GI50: 2.57 µM
  TGI: 8.6 µM
[10]
  GI50: 2.62 µM
  TGI: 7.97 µM
[11]
  GI50: 1.45 µM
  TGI: 4.88 µM
[12]
  GI50: 1.79 µM
  TGI: 13.4 µM
[13]
  GI50: 1.38 µM
  TGI: 2.75 µM
[14]
  GI50: 1.64 µM
  TGI: 5.54 µM
[15]
  GI50: 2.26 µM
  TGI: 12.6 µM
[16]
  GI50: 3.08 µM
  TGI: 14.1 µM
[17]
  GI50: 1.68 µM
  TGI: 10.5 µM
[18]
  GI50: 3.3 µM
  TGI: 15.6 µM
[19]
  GI50: 2.23 µM
  TGI: 9.21 µM
[20]
  GI50: 2.06 µM
  TGI: 5.69 µM
[21]
  GI50: 2.72 µM
  TGI: 9.52 µM
[22]
  GI50: 0.509 µM
  TGI: > 100 µM
[23]
  GI50: 2.53 µM
  TGI: 7.3 µM
[24]
  GI50: 2.17 µM
  TGI: 7.56 µM
[25]
  GI50: 1.45 µM
  TGI: 4.77 µM
[1]
  GI50: 1.95 µM
  TGI: 8.03 µM
[26]
  GI50: 2.85 µM
  TGI: 10.8 µM
[27]
  GI50: 1.26 µM
  TGI: 7.7 µM
[28]
  GI50: 1.82 µM
  TGI: 6.58 µM
[29]
  GI50: 2 µM
  TGI: 8.07 µM
[30]
  GI50: 2.51 µM
  TGI: 10.4 µM
[31]
  GI50: 3.26 µM
  TGI: 10.8 µM
[32]
  GI50: 1.18 µM
  TGI: 2.71 µM
[33]
  GI50: 2.33 µM
  TGI: 13.1 µM
[34]
  GI50: 1.96 µM
  TGI: 5.16 µM
[35]
  GI50: 1.85 µM
  TGI: 7.48 µM
[36]
  GI50: 1.57 µM
  TGI: 10.5 µM
[37]
  GI50: 2.25 µM
  TGI: 13.1 µM
[38]
  GI50: 3.11 µM
  TGI: 10.6 µM
[39]
  GI50: 3.83 µM
  TGI: 13.5 µM
[40]
  GI50: 2.88 µM
  TGI: 11.7 µM
[41]
  GI50: 2.92 µM
  TGI: 14.3 µM
[42]
  GI50: 2.18 µM
  TGI: 5.69 µM
[43]
  GI50: 1.06 µM
  TGI: 5.4 µM
[44]
  GI50: 1.88 µM
  TGI: 4.12 µM
[45]
  GI50: 1.71 µM
  TGI: 10.5 µM
[46]
  GI50: 3.09 µM
  TGI: 14.5 µM
[47]
  GI50: 1.75 µM
  TGI: 10.8 µM
[48]
  GI50: 2.67 µM
  TGI: 10.5 µM
[49]
  GI50: 1.27 µM
  TGI: 7.3 µM
[50]
  GI50: 1.88 µM
  TGI: 5.2 µM
[51]
  GI50: 2.09 µM
  TGI: 5.3 µM
[52]
  GI50: 1.26 µM
  TGI: 10 µM
[53]
  GI50: 2.74 µM
  TGI: 8.16 µM
[54]
  GI50: 1.61 µM
  TGI: 4.38 µM
[55]
  GI50: 0.724 µM
  TGI: 8.7 µM
[56]
  GI50: 3.02 µM
  TGI: 11 µM
[57]
  GI50: 2.66 µM
  TGI: > 100 µM

## O=C(CC12CC3CC(CC(C3)C1)C2)NCCOCCOCCOCCNC(=O)c1cc2c(o1)C(=O)c1ccccc1C2=O
[1]
  GI50: 1.39 µM
  TGI: 4.36 µM

## Cn1ccnc1C(=O)/C=C/c1ccc(CNC(=O)c2ccc(F)cc2)cc1
[1]
  GI50: 1.66 µM
  TGI: 7.04 µM

## Cc1cc(N2CCN(c3ccnc4cc(Cl)ccc34)CC2)nc(NC2CCCCC2)n1
[1]
  GI50: 1.59 µM
  TGI: 3.88 µM

## COc1ccc(-c2nc3ncccn3c2/C=C/C(=O)c2cc(OC)c(OC)c(OC)c2)cc1
[1]
  GI50: 1.81 µM
  TGI: 3.65 µM

## CCCN1CCN(c2ccc3nc(-c4ccc5nc(-c6cc(OC)ccc6OC)[nH]c5c4)[nH]c3c2)CC1
[1]
  GI50: 1.7 µM
  TGI: 3.31 µM

## Cc1ccc(-c2nc(N)nc3c2nnn3Cc2cccc(CO[C@H]3CCOC3)n2)o1
[1]
  GI50: 44.4 µM
  TGI: > 100 µM

## O=C([O][Hg][CH2]C1COCC([CH2][Hg][O]C(=O)c2ccccc2)O1)c1ccccc1 (stereo unspecified)
[1]
  GI50: 1.72 µM
  TGI: 3.24 µM

## CN(C)C1CCN(C(=O)c2ccc(NC(=O)Nc3ccc(-c4nc(N5CCOCC5)nc(N5CCOCC5)n4)cc3)cc2)CC1
[1]
  GI50: 0.00749 µM and 0.013 µM
  TGI: 0.0636 µM and 0.185 µM

## C=C[C@H]1CCC/C=C/[C@@H]2C[C@H](O)C[C@H]2[C@H](O)/C=C/C(=O)O1
[1]
  GI50: < 0.01 µM
  TGI: < 0.0153 µM

## O=C(N/N=C/c1ccccc1Cl)c1ccccc1Nc1ccnc(C(F)(F)F)c1
[1]
  GI50: 2.25 µM
  TGI: 11.1 µM

## O=CN1N=C(c2ccc(Cl)cc2)CC1c1cccc(Nc2ccnc3cc(Cl)ccc23)c1 (stereo unspecified)
[1]
  GI50: 0.284 µM
  TGI: 3.93 µM

## Nc1cc(-c2cccc(OC(F)(F)F)c2)nc2ccc(N3CCCC3)cc12
[1]
  GI50: 0.0337 µM and 0.0304 µM and 0.0288 µM
  TGI: 0.237 µM and 0.115 µM and 0.136 µM

## O=S(=O)(c1ccc(N=C2NN=C(c3c[nH]c4ccccc34)CS2)cc1)N1CCOCC1
[1]
  GI50: 5.46 µM
  TGI: > 100 µM

## CC1(C)CC(n2cnc(-c3ccc(F)cc3)c2-c2ccnc(N)n2)CC(C)(C)N1
[1]
  GI50: 4.23 µM
  TGI: 24.2 µM

## Cc1cc(-c2nnc(N)nc2-c2ccc(F)cc2)cc(Cl)n1
[1]
  GI50: 20.6 µM
  TGI: > 100 µM

## COc1ccc(CNc2c3ccccc3nc3ccc(OC)cc23)cc1
[1]
  GI50: 1.82 µM
  TGI: 4.31 µM

## COc1c(Cl)c2c(c(OC)c1OC)-c1ccc(SC)c(=O)cc1[C@@H](NC(=O)OCC(F)(F)F)CC2
[1]
  GI50: < 0.01 µM
  TGI: 17.3 µM

## Cc1ccc(NC2=C(Cl)C(=O)c3nc(C)ccc3C2=O)c(C)c1
[1]
  GI50: 1.61 µM
  TGI: 3.32 µM

## O=C(Nc1ccc(F)cc1F)c1cc(Br)ccc1O
[1]
  GI50: 2.54 µM
  TGI: 6.91 µM

## COC(=O)c1c2c(c(C)[n+]([O-])c1C)C(=O)C=C(NCc1ccc(OC)cc1)C2=O
[1]
  GI50: 0.679 µM
  TGI: 2.01 µM

## CCN=c1cc2sc3cc(NCC)c(C)cc3nc-2cc1C
[1]
  GI50: 0.86 µM
  TGI: 5.57 µM

## O=P([O-])(O)OP(=O)([O-])O.[NH-][C@@H]1CCCC[C@H]1[NH-].[Pt+4]
[1]
  GI50: 21.5 µM and 8.19 µM
  TGI: > 100 µM and 27.7 µM

## c1cc(OCCN2CCCCC2)ccc1CNc1ccc2nc(CCC3CCCCC3)[nH]c2c1
[1]
  GI50: 1.58 µM
  TGI: 3.84 µM

## NC(=O)c1ccc2c(-c3ccnc(NCCCO)n3)c(-c3ccc(F)cc3)nn2c1
[1]
  GI50: > 16.1 µM
  TGI: > 25 µM

## COc1cc2c(Oc3ccc4[nH]c(C)cc4c3F)ccnc2cc1OCC1(N)CC1
[1]
  GI50: 0.312 µM
  TGI: 1.67 µM

## Cc1cc(N2CCCC2)nc(NC2CCCC(Nc3ccnc4cc(Cl)ccc34)C2)n1 (stereo unspecified)
[1]
  GI50: 1.41 µM
  TGI: 3.14 µM

## O=c1[nH]ccc2nc(N3CCC(O)CC3)nc(Nc3cccc(C(F)(F)F)c3)c12
[1]
  GI50: 1.76 µM
  TGI: 7.11 µM

From PubChem BioAssay (NCI)
